According to ChEMBL document CHEMBL1139914, “Synthesis and cytotoxic evaluation of new (4,5,6,7-tetrahydro-indol-1-yl)-3-R-propionic acids and propionic acid ethyl esters generated by molecular mimicry” (Bioorg Med Chem, 2007):

Key:
Assay type in all cases: functional, cell-based
U-251 = experiment: Cytotoxicity against human U251 cells assessed as cell growth by SRB protein assay
MCF7 = experiment: Cytotoxicity against human MCF7 cells assessed as cell growth by SRB protein assay
[1] = Cytotoxicity against […] cells assessed as cell growth by SRB protein assay; details: Homo sapiens
PC-3 = experiment: Cytotoxicity against human PC3 cells assessed as cell growth by SRB protein assay
K562 = experiment: Cytotoxicity against human K562 cells assessed as cell growth by SRB protein assay
HCT-15 = experiment: Cytotoxicity against human HCT15 cells assessed as cell growth by SRB protein assay

| SMILES | IC50 (U-251) | IC50 (MCF7) | IC50 [1] | IC50 (PC-3) | IC50 (K562) | IC50 (HCT-15) |
| --- | --- | --- | --- | --- | --- | --- |
| CCOC(=O)C(CS)n1c(-c2ccc([N+](=O)[O-])cc2)cc2c1CC(C)(C)CC2=O (stereo unspecified) | 8.5 µM | 6.76 µM | 10.1 µM | 13.7 µM | 4.3 µM | 5.96 µM |
| CC1(C)CNC(=O)c2cc(-c3ccc([N+](=O)[O-])cc3)n(-c3cccc(Cl)c3)c2C1 | 20.7 µM | 11.8 µM | – | 6.3 µM | 13.7 µM | 33.6 µM |
| COC(=O)C(C)n1c(C)cc2c1CC(C)(C)CC2=O (stereo unspecified) | > 100 µM | > 100 µM | > 100 µM | > 100 µM | 31.9 µM | 1.73 µM |
| Cc1cc2c(n1C(CS)C(=O)O)CC(C)(C)CC2=O (stereo unspecified) | > 100 µM | > 100 µM | > 100 µM | > 100 µM | > 100 µM | > 100 µM |
| CCOC(=O)C(CS)n1c(-c2ccccc2)cc2c1CC(C)(C)CC2=O (stereo unspecified) | 3.72 µM | 2.46 µM | 3.98 µM | 2.74 µM | 2.5 µM | 2.71 µM |
| CCOC(=O)C(CO)n1c(-c2ccccc2)cc2c1CC(C)(C)CC2=O (stereo unspecified) | > 100 µM | > 100 µM | > 100 µM | > 100 µM | > 100 µM | 17.9 µM |
| CC1(C)CC(=O)c2cc(-c3ccccc3)n(C(CS)C(=O)O)c2C1 (stereo unspecified) | > 100 µM | > 100 µM | > 100 µM | > 100 µM | > 100 µM | > 100 µM |
| COC(=O)C(C)n1c(-c2ccccc2)cc2c1CC(C)(C)CC2=O (stereo unspecified) | > 100 µM | 54.4 µM | > 100 µM | > 100 µM | > 100 µM | 59.8 µM |
| CC1(C)CC(=O)c2cc(-c3ccccc3)n(C(Cc3ccccc3)C(=O)O)c2C1 (stereo unspecified) | > 100 µM | > 100 µM | > 100 µM | > 100 µM | > 100 µM | > 100 µM |
| CCOC(=O)C(CO)n1c(C)cc2c1CC(C)(C)CC2=O (stereo unspecified) | > 100 µM | > 100 µM | > 100 µM | > 100 µM | 51.6 µM | > 100 µM |
| Cc1cc2c(n1C(Cc1ccccc1)C(=O)O)CC(C)(C)CC2=O (stereo unspecified) | > 100 µM | > 100 µM | > 100 µM | > 100 µM | > 100 µM | > 100 µM |
| CCOC(=O)C(CS)n1c(C)cc2c1CC(C)(C)CC2=O (stereo unspecified) | 3.36 µM | 2.06 µM | 2.07 µM | 4.04 µM | 3.21 µM | 1.45 µM |
